Our source for the T/C values is PubChem BioAssay AID330 (DTP/NCI, 2004).

Values joined by “and” are separate entries in the source; they are usually repeats but may differ in a detail not shown here. Equal values may be shown once. Inconclusive results and toxic doses are left out.

The test system of this experiment is P388 leukemia ip, CD2F1 mice, survival T/C. The experiment is described as follows: NCI In Vivo Anticancer Drug Screen. Data for tumor model P388 Leukemia (intraperitoneal) in CD2F1 (CDF1) mice. Conditions: endpoint: median survival time, higher = longer survival. The essentials: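 Mice carrying the transplanted tumor received test compound or vehicle. Survival was recorded in each group, and the value is the treated-group measurement divided by that of the vehicle-treated control group.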

Setting [1] is: dose: 50.0 mg/kg/injection, schedule: Q01DX009 (ip), vehicle: saline with Tween-80.
Setting [2] is: dose: 100.0 mg/kg/injection, schedule: Q01DX009 (ip), vehicle: saline with Tween-80.
The mark [3] stands for this setting: dose: 200.0 mg/kg/injection, schedule: Q01DX009 (ip), vehicle: saline with Tween-80.
Setting [4] is: dose: 200.0 mg/kg/injection, schedule: Q01DX009 (ip), vehicle: saline.
[5] abbreviates: dose: 50.0 mg/kg/injection, schedule: Q01DX005 (ip), vehicle: Klucel (hydroxypropylcellulose) (HPC).
Setting [6] is: dose: 100.0 mg/kg/injection, schedule: Q01DX005 (ip), vehicle: Klucel (hydroxypropylcellulose) (HPC).
[7] abbreviates: dose: 200.0 mg/kg/injection, schedule: Q01DX005 (ip), vehicle: Klucel (hydroxypropylcellulose) (HPC).
Setting [8] is: dose: 60.0 mg/kg/injection, schedule: Q01DX005 (ip), vehicle: saline with Tween-80.
Setting [9] is: dose: 120.0 mg/kg/injection, schedule: Q01DX005 (ip), vehicle: saline with Tween-80.
Where [10] appears, read: dose: 240.0 mg/kg/injection, schedule: Q01DX005 (ip), vehicle: saline with Tween-80.
The mark [11] stands for this setting: dose: 100.0 mg/kg/injection, schedule: Q04DX002 (ip), vehicle: saline with Tween-80.
Setting [12] is: dose: 200.0 mg/kg/injection, schedule: Q04DX002 (ip), vehicle: saline with Tween-80.
Where [13] appears, read: dose: 400.0 mg/kg/injection, schedule: Q04DX002 (ip), vehicle: saline with Tween-80.

As to `COc1ccc(CCN(C)CCCC(C#N)(c2ccc(OC)c(OC)c2)C(C)C)cc1OC` (stereo unspecified), the T/C (dose: 1.0 mg/kg/injection, schedule: Q02HX018 (sc), vehicle: water) was 99 % of control; the T/C (dose: 2.0 mg/kg/injection, schedule: Q02HX018 (sc), vehicle: water) is 99 % of control; the T/C (dose: 4.0 mg/kg/injection, schedule: Q02HX006 (sc), vehicle: saline with Tween-80) was 100 % of control; the T/C (dose: 4.0 mg/kg/injection, schedule: Q02HX018 (sc), vehicle: water) is 103 % of control; the T/C (dose: 8.0 mg/kg/injection, schedule: Q02HX006 (sc), vehicle: saline with Tween-80) was 96 % of control; the T/C (dose: 8.0 mg/kg/injection, schedule: Q02HX018 (sc), vehicle: water) is 110 % of control. Besides, the T/C (dose: 8.0 mg/kg/injection, schedule: Q03HX006 (ip), vehicle: saline) is 104 % of control; the T/C (dose: 16.0 mg/kg/injection, schedule: Q02HX006 (sc), vehicle: saline with Tween-80) was 106 % of control; the T/C (dose: 16.0 mg/kg/injection, schedule: Q02HX018 (sc), vehicle: water) is 108 % of control; the T/C (dose: 16.0 mg/kg/injection, schedule: Q03HX006 (ip), vehicle: saline) was 101 % of control; the T/C (dose: 32.0 mg/kg/injection, schedule: Q02HX006 (sc), vehicle: saline with Tween-80) was 82 % of control; the T/C (dose: 32.0 mg/kg/injection, schedule: Q03HX006 (ip), vehicle: saline) is 103 % of control. Also, the T/C (dose: 64.0 mg/kg/injection, schedule: Q02HX006 (sc), vehicle: saline with Tween-80) is 19 % of control.
In the case of `COC1/C=C/OC2(C)Oc3c(C)c(O)c4c(O)c(c(/C=N/n5c(=O)[nH]c6ccccc6c5=O)c(O)c4c3C2=O)NC(=O)/C(C)=C\C=C\C(C)C(O)C(C)C(O)C(C)C(OC(C)=O)C1C` (stereo unspecified), the T/C is, setting by setting: under setting [1], 107 % of control; under setting [2], 108 % of control; under setting [3], 106 % of control.
Turning to `NC1=C(C(=O)c2ccccc2)CCCC1`, the T/C is 106 % of control (dose: 50.0 mg/kg/injection, schedule: Q01DX009 (ip), vehicle: saline); 97 % of control (dose: 100.0 mg/kg/injection, schedule: Q01DX009 (ip), vehicle: saline); 97 % of control under setting [4].
Take `Cc1c(C)c(C)c(S(=O)(=O)N2CCN(S(=O)(=O)c3c(C)c(C)c(C)c(C)c3C)CC2)c(C)c1C`: the T/C (dose: 50.0 mg/kg/injection, schedule: Q01DX005 (ip), vehicle: saline with Tween-80) is 100 % of control; the T/C (dose: 100.0 mg/kg/injection, schedule: Q01DX005 (ip), vehicle: saline with Tween-80) was 97 % of control; the T/C (dose: 200.0 mg/kg/injection, schedule: Q01DX005 (ip), vehicle: saline with Tween-80) is 96 % of control.
Regarding `CCCCCC1(CCBr)C(=O)NC(=O)NC1=O`, the T/C is, setting by setting: under setting [5], 100 % of control; under setting [6], 102 % of control; under setting [7], 108 % of control.
Turning to `CC(=O)N1CCCC2=C1CCCCCCCCCC2`, the T/C was 99 % of control (dose: 100.0 mg/kg/injection, schedule: Q04DX003 (ip), vehicle: saline); 105 % of control (dose: 200.0 mg/kg/injection, schedule: Q04DX003 (ip), vehicle: saline); 96 % of control (dose: 400.0 mg/kg/injection, schedule: Q04DX003 (ip), vehicle: saline).
Turning to `c1ccc2nc3c(nc2c1)CCCC3`, the T/C under setting [5] was 96 % of control, the T/C under setting [6] is 109 % of control and the T/C under setting [7] is 100 % of control.
As for `COc1ccc2cc1Oc1ccc(cc1)CC1c3cc(OC)c(OC)c(c3CCN1C)Oc1c(OC)c(OC)cc3c1[C@H](C2)NCC3` (stereo partly specified), the T/C is, setting by setting: (dose: 2.75 mg/kg/injection, schedule: Q01DX005 (ip), vehicle: Klucel (hydroxypropylcellulose) (HPC)) 90 % of control; (dose: 5.5 mg/kg/injection, schedule: Q01DX005 (ip), vehicle: Klucel (hydroxypropylcellulose) (HPC)) 99 % of control; (dose: 11.0 mg/kg/injection, schedule: Q01DX005 (ip), vehicle: Klucel (hydroxypropylcellulose) (HPC)) 99 % of control; (dose: 22.0 mg/kg/injection, schedule: Q01DX005 (ip), vehicle: Klucel (hydroxypropylcellulose) (HPC)) 94 % of control.
Take `c1cnc(NC(Nc2cnccn2)C2CCCCC2)cn1`: the T/C (dose: 60.0 mg/kg/injection, schedule: Q01DX005 (ip), vehicle: Klucel (hydroxypropylcellulose) (HPC)) was 96 % of control; the T/C (dose: 120.0 mg/kg/injection, schedule: Q01DX005 (ip), vehicle: Klucel (hydroxypropylcellulose) (HPC)) is 100 % of control; the T/C (dose: 240.0 mg/kg/injection, schedule: Q01DX005 (ip), vehicle: Klucel (hydroxypropylcellulose) (HPC)) is 107 % of control.
With `Nc1c2c(c(N)c3c1C(=O)c1ccccc1C3=O)OCO2`, the T/C is 100 % of control under setting [8], 98 % of control under setting [9] and 98 % of control under setting [10].
For `CCO/C(C)=N\c1nc(C)[nH]c1C(N)=O`, the T/C was 120 % of control (dose: 6.25 mg/kg/injection, schedule: Q01DX009 (ip), vehicle: saline with Tween-80); 106 % of control (dose: 12.5 mg/kg/injection, schedule: Q01DX009 (ip), vehicle: saline with Tween-80); 87 % of control (dose: 25.0 mg/kg/injection, schedule: Q01DX009 (ip), vehicle: saline with Tween-80); 86 % of control under setting [4].
As for `CC12CC3CC(C)(C1)CC(SCCN)(C3)C2`, the T/C reads like this: under setting [8], 105 % of control; under setting [9], 100 % of control.
As for `Nc1ncnc2c1ncn2C(C=O)OC(C=O)CO` (stereo unspecified), the T/C by setting is: (dose: 4.4 mg/kg/injection, schedule: Q04DX003 (ip), vehicle: saline) 118 % of control; (dose: 6.6 mg/kg/injection, schedule: Q04DX003 (ip), vehicle: saline) 118 % of control; (dose: 9.38 mg/kg/injection, schedule: Q04DX003 (ip), vehicle: saline) 177 % of control; (dose: 12.5 mg/kg/injection, schedule: Q01DX009 (ip), vehicle: saline) 150 % of control; (dose: 25.0 mg/kg/injection, schedule: Q01DX009 (ip), vehicle: saline) 186 % of control; (dose: 37.5 mg/kg/injection, schedule: Q04DX003 (ip), vehicle: saline) 118 % of control. Moreover, the T/C (dose: 75.0 mg/kg/injection, schedule: Q04DX003 (ip), vehicle: saline) was 209 % of control.
`Cc1nc(C(=O)O)cc([N+](=O)[O-])c1C`: the T/C (dose: 25.0 mg/kg/injection, schedule: Q01DX009 (ip), vehicle: other) was 97 % of control; the T/C (dose: 50.0 mg/kg/injection, schedule: Q01DX009 (ip), vehicle: other) was 97 % of control; the T/C (dose: 100.0 mg/kg/injection, schedule: Q01DX009 (ip), vehicle: other) is 100 % of control; the T/C (dose: 200.0 mg/kg/injection, schedule: Q01DX009 (ip), vehicle: other) is 94 % of control.
Take `CCOC(=O)CNC(=O)C(CSSCC(NC(=O)OCc1ccccc1)C(=O)OC)NC(=O)C(NC(=O)OCc1ccccc1)C(C)C` (stereo unspecified): the T/C reads like this: under setting [5], 100 % of control; under setting [6], 98 % of control; under setting [7], 95 % of control.
For the compound `CCn1cc(C(=O)O)c(=O)c2cnc(N3CCCC3)nc21`, the T/C by setting is: under setting [1], 90 % of control; under setting [2], 99 % of control; under setting [3], 92 % of control.
On to `CC1(C)CC(=O)C2=C(C1)NC(=O)CC2`, for which the T/C reads like this: under setting [8], 101 % of control; under setting [9], 101 % of control; under setting [10], 96 % of control.
`COc1ccc2c(c1)NC(c1ccc(C(N)=S)cc1)N2` (stereo unspecified): the T/C is 89 % of control under setting [11], 87 % of control under setting [12] and 88 % of control under setting [13].
Take `C[C@]12C=CC(=O)C=C1CC[C@@H]1[C@@H]2C(=O)C[C@@]2(C)[C@H]1CC[C@]2(O)C(=O)COC(=O)CSc1c2ccccc2nc2ccccc12`: the T/C by setting is: (dose: 12.5 mg/kg/injection, schedule: Q01DX005 (ip), vehicle: Klucel (hydroxypropylcellulose) (HPC)) 103 % of control; (dose: 25.0 mg/kg/injection, schedule: Q01DX005 (ip), vehicle: Klucel (hydroxypropylcellulose) (HPC)) 100 % of control; under setting [5], 104 % of control and 107 % of control; under setting [6], 107 % of control; under setting [7], 102 % of control.
As to `O=C1CSC(c2cccnc2)N1CCN1C(=O)CSC1c1cccnc1` (stereo unspecified), the T/C was 105 % of control under setting [8]; 112 % of control under setting [11]; 105 % of control under setting [9]; 112 % of control under setting [12]; 101 % of control under setting [10]; 109 % of control under setting [13].
